Experimental findings from publication PMC3465505 (Antiviral research, 2012) are described below.

Where two headings read alike, the source gives them in different places. Marks after values point to notes of the source that are not given here.

Broadly, the inhibition is the change of the read-out against control, counted positive when it falls.

Data set [1] deals with SV40 TAg ATPase activity (Simian virus 40, UniProt P03070). In words: biochemical. The settings on record: for inhibition of TAg ATPase activity (SAR screen): 30 μM compound; for potency of TAg ATPase inhibition compared with MAL2-11B: 100 μM compound; for inhibition at 3 µM: read-out: inhibition of TAg ATPase activity; for inhibition at 30 µM: read-out: inhibition of the ATPase activity of TAg. In kind it is biochemical.
SV40 TAg ATPase activity, sequence (P03070 whole entry): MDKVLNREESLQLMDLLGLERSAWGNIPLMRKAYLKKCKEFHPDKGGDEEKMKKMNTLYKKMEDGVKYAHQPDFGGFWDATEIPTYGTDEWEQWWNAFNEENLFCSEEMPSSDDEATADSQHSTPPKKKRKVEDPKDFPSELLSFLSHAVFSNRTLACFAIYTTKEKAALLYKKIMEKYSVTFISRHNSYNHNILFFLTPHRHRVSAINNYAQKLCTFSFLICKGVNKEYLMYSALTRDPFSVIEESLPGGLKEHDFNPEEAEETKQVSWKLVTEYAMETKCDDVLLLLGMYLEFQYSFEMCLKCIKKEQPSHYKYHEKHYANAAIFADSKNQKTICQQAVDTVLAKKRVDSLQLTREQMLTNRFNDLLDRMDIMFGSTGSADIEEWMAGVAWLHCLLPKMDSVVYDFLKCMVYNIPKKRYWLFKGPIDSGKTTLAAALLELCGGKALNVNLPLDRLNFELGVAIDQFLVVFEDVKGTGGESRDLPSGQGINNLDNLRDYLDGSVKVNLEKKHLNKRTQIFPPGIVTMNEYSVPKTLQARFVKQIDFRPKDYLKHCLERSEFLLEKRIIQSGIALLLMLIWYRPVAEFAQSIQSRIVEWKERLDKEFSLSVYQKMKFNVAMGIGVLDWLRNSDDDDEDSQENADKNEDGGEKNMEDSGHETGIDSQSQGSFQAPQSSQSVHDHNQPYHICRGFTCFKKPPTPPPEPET

Data set [2] has as its target T1, SV40 TAg (Simian virus 40, UniProt P03070). Type of data set: biochemical.
For data set [3], the system named is SV40. In words: SV40 plaque assay in CV1 cells. Conditions: 2 days; for inhibition of viral replication relative to the DMSO control (plaque assay): 30 μM. In kind it is cell-based, Simian Virus 40.
The subject of data set [4] is SV40. In words: SV40 DNA replication by qPCR in CV1 cells. In kind it is cell-based, Simian Virus 40. The settings on record: 48 hpi; for inhibition of DNA replication: 30 μM.
In data set [5] the test system is BKV. In words: BKV DNA replication by qPCR in Vero cells. In kind it is cell-based, BK virus. The settings on record: 10 μM, 5 d.
The test system of data set [6] is CV1 cells. In words: MTS viability assay. Type of data set: cell-based, monkey. The settings on record: CV1 cells ~90% confluency, 48 h.
For data set [7], the target named is T1, SV40 TAg. In words: TAg aggregation under ATPase assay conditions. Conditions: utilized ATPase assay conditions.
[8] abbreviates: TAg in the presence of 3 μM compound.

T1 sequence (P03070 whole entry): as above

For `Oc1c(Br)cc(Cl)cc1Cc1cc(Cl)cc(Br)c1O` [6,6'-methylenebis(2-bromo-4-chlorophenol)], in data set [1], the “inhibition of TAg ATPase activity (SAR screen)” value was “inhibited TAg ATPase activity”.
Still for that read-out and setting: then `Oc1c(Br)cc(Cl)cc1Sc1cc(Cl)cc(Br)c1O` [6,6'-thiobis(2-bromo-4-chlorophenol)], with “inhibited TAg ATPase activity”.
As for `Nc1ncnc2c1ncn2[C@@H]1O[C@H](COP(=O)(O)OP(=O)(O)O)[C@@H](O)[C@H]1O` [ADP], in data set [2] (TAg in the presence of 150 μM ADP), the Vmax is given as 2.9 ^‡ pmol/min.
Turning to `CC1=C(C(=O)OCc2ccccc2)C(c2ccc(-c3ccccc3)cc2)NC(=O)N1CCCCCC(=O)O` (stereo not drawn) [MAL2-11B], the “reduction of the number of plaques” value in data set [3] (100 μM) is ~60%. The “inhibition of DNA replication in culture” value in data set [4] (100 μM) is ~ 60%.
As for `Oc1c(Cl)cc(Cl)cc1Sc1cc(Cl)cc(Cl)c1O` [bithionol, Bithionol], in data set [1], the “potency of TAg ATPase inhibition compared with MAL2-11B” value is on record as “significantly more potent inhibitors than MAL2-11B”, the inhibition at 3 µM was ~50% and the inhibition at 30 µM was ~80%. Besides, the Vmax in data set [2] (setting [8]) is recorded as 10 ^‡ pmol/min. Besides, the “inhibition of viral replication relative to the DMSO control (plaque assay)” value in data set [3] is reported as ~100 fold. Moreover, in data set [4], the “inhibition of DNA replication” value is listed as ~ 100 fold. Further, the “inhibition of BKV replication” value in data set [5] is “somewhat less effective”. Moreover, the “MI50 (metabolic index-50)” value in data set [6] was 68 µM.
Consider `O=C1C(Cl)=C(Cl)C(=O)C(Cl)=C1Cl` [chloranil], for which the “potency of TAg ATPase inhibition compared with MAL2-11B” value in data set [1] is given as “significantly more potent inhibitors than MAL2-11B”. Besides, the TAg aggregation result in data set [7] is “caused TAg to aggregate”.
In the case of `Oc1c(Cl)cc(Cl)c(Cl)c1Cc1c(O)c(Cl)cc(Cl)c1Cl` [hexachlorophene], in data set [1], the “potency of TAg ATPase inhibition compared with MAL2-11B” value is given as “significantly more potent inhibitors than MAL2-11B”, the inhibition at 3 µM was ~50% and the inhibition at 30 µM is ~80%. For the same compound, the Vmax in data set [2] (setting [8]) is recorded as 6.6 ^‡ pmol/min. In addition, the “inhibition of viral replication relative to the DMSO control (plaque assay)” value in data set [3] was ~100 fold. Also, in data set [4], the “inhibition of DNA replication” value is recorded as ~ 100 fold. Moreover, in data set [5], the “inhibition of BKV replication” value is reported as “maintained its potent inhibition”. In data set [6], the “MI50 95% confidence range based on the sigmoidal fit” value lay in the range of 29 to 71 µM and the “MI50 (metabolic index-50)” value stood at 55 µM.
